# Experimental data as given in US7655225B2, “Methods of expanding stem and progenitor cells and expanded cell populations obtained thereby” (Gamida Cell, Ltd., priority 2002, dated 2010).
# What was measured:
# CD34+ cells [1] = assay: Ex vivo expansion of purified CD34+ cells in liquid culture: cell enumeration and FACS of subsets; format: cell-based, human; settings: three weeks, 5, 10 or 20 μM
# Experimental: Sample collection and processing: Samples were obtained from umbilical human cord blood and processed within 12 hours. The blood cells were mixed with 3% Gelatin (Gigma, St. Louis, Mo.) and allowed to sediment for 30 minutes to remove most red blood cells. The leukocyte-rich fraction was harvested, layered on Ficoll-Hypaque (density 1.077 gram/ml; Sigma) and centrifuged at 400 g for 30 minutes at room temperature. The mononuclear cells in the interface layer were then collected, washed three times in phosphate-buffered saline (PBS; Biological Industries), and re-suspended in PBS solution which contains 1% bovine serum albumin (BSA; Sigma). The cells were then incubated at 4° C. for 30 minutes with murine monoclonal anti CD34^+ antibody (0.5 μg/10^6 mononuclear cells) and were thereafter isolated using two cycles of immuno-magnetic separation using the miniMACS CD34^+ Progenitor Cell Isolation Kit (Miltenyi-Biotec, Auburn, Calif.) according to the manufacturer's recommendations. The purity of the CD34^+ cells obtained ranged between 95% and 98%, based on Flow Cytometry evaluation (see below). Ex vivo expansion of progenitor cells: Enriched CD34^+ cell fractions were cultures in 24-well Costar Cell Culture Clusters (Corning Inc., Corning, N.Y.) or in Culture Bags (American Fluoroseal Corp.) with alpha minimal essential medium supplemented with 10% fetal bovine serum (FBS, Biological Industries), at about 1-3×10^4 cells/ml medium. The media were further supplemented with the following human recombinant cytokines (all obtained from Perpo Tech, Inc., Rocky Hill, N.J.): Thrombopoietin (TPO), 50 ng/ml; interleukin 6 (IL-6), 50 ng/ml; FLT-3 ligand, 50 ng/ml; and IL-3, 20 ng/ml. The cultures were incubated at 37° C. in an atmosphere of 5% CO2 in air with extra humidity. At weekly intervals cell cultures were semi-depopulated and supplemented with fresh medium containing the cytokines. Following different incubation periods, the cells were harvested, stained with trypan blue and enumerated. The total cell counts, numbers of CD34^+ cells and subsets thereof, and the number of colony-forming cells (CFU) are presented herein as cumulative numbers, with the assumption that the cultures had not been passaged, namely, the numbers of cells per ml were multiplied by the number of passages performed. Surface antigen analysis: At different time intervals, the cultured cells were harvested, washed with a PBS solution containing 1% BSA and 0.1% sodium azide (Sigma), and stained, at 4° C. for 60 minutes, with FITC-labeled anti CD45 monoclonal antibody and either PE-labeled anti CD34 (HPCA-2) monoclonal or PE-labeled control mouse Ig (all from Immunoquality Products, the Netherlands). The cells were then washed with the same PBS solution and were analyzed by a flow cytometer, as described hereinafter. Flow cytometry analysis: Cells were analyzed and sorted using FACS caliber flow cytometer (Becton-Dickinson, Immunofluorometry systems, Mountain View, Calif.). Cells were passed at a rate of 1,000 cells/second through a 70 μm nozzle, using a saline sheath fluid. A 488 nm argon laser beam at 250 mW served as the light source for excitation. Fluorescence emission of ten thousand cells was measured using a logarithmic amplification and analyzed using CellQuest software. Determination of the density of stem and progenitor subset populations following expansion: Following an incubation period, the CD34^+ cells were re-selected using miniMACS Miltenyi kit. The purity of the positive fraction of selected CD34^+ cells was confirmed by FACS analysis as well as by cell morphology analysis. The density of CD34^+ cells, in proportion (percentage) to total cells, was determined directly via FACS analysis. The densities of CD34^+ subset populations were determined from the purified CD34^+ fraction. Re-selected CD34^+ cells were stained with lineage specific antigens followed by FACS analysis to determine the percentage of the subset populations within the total number of CD34^+ cells. […]
# CD34+ cells [2] = assay: Self-renewal potential: colony-forming cells (CFU) from CD34+ cultures; format: cell-based, human; settings: five-weeks culture; 10 or 20 μM, added first three weeks; FIG. 9
# Text: Ex vivo expansion of progenitor cells: Enriched CD34^+ cell fractions were cultures in 24-well Costar Cell Culture Clusters (Corning Inc., Corning, N.Y.) or in Culture Bags (American Fluoroseal Corp.) with alpha minimal essential medium supplemented with 10% fetal bovine serum (FBS, Biological Industries), at about 1-3×10^4 cells/ml medium. The media were further supplemented with the following human recombinant cytokines (all obtained from Perpo Tech, Inc., Rocky Hill, N.J.): Thrombopoietin (TPO), 50 ng/ml; interleukin 6 (IL-6), 50 ng/ml; FLT-3 ligand, 50 ng/ml; and IL-3, 20 ng/ml. The cultures were incubated at 37° C. in an atmosphere of 5% CO2 in air with extra humidity. At weekly intervals cell cultures were semi-depopulated and supplemented with fresh medium containing the cytokines. Following different incubation periods, the cells were harvested, stained with trypan blue and enumerated. The total cell counts, numbers of CD34^+ cells and subsets thereof, and the number of colony-forming cells (CFU) are presented herein as cumulative numbers, with the assumption that the cultures had not been passaged, namely, the numbers of cells per ml were multiplied by the number of passages performed. Self-renewal potential evaluations: The self-renewal potential of stem cells was determined in vitro by long-term colony formation. Cells were washed and seeded in a semi-solid methylcellulose medium supplemented with 2 IU/ml erythropoietin ([…] Int., Switzerland), stem cell factor and IL-3, both at 20 ng/ml (Perpo Tech), and G-CSF and GM-CSF, both at 10 ng/ml (Perpo Tech). The resulting colonies were scored after two weeks of incubation at 37° C. in a humidified atmosphere of 5% CO2 in air. Colonies were classified as blast, mixed, erythroid, myeloid, and megakaryocytic, according to their cellular composition.
structure (smiles),measurement,setting,value
"[Cl][Cu][Cl] [copper chloride, reference compound]",number of total cells vs untreated control,CD34+ cells [1]; FIG. 8a,did not differ significantly
same,stem cells (CD34+) vs untreated or chelate-treated cultures,CD34+ cells [1]; FIG. 8b,fewer
same,CD34+ CD38− stem/progenitor subset cells vs untreated or chelate-treated cultures,CD34+ cells [1]; FIG. 8c,fewer
same,CD34+ Lin− stem/progenitor subset cells vs untreated or chelate-treated cultures,CD34+ cells [1]; FIG. 8d,fewer
same,colony-forming cells of CD34+ vs untreated or TEPA-Cu treated cultures,CD34+ cells [2],substantially fewer
